Patent publication US6291470A, “Indole derivatives process for producing the same and medicinal uses of the same” (Toray Industries, Inc., priority 1992, dated 2001)

Key:
[1] = target: T1, δ-opioid receptor (Mus musculus, UniProt P32300); assay: δ-opioid antagonist activity against DPDPE in mouse vas deferens (MVD); details: for Ratio of IC50 Values: DPDPE IC50 with/without 100 nM test compound; for Ratio of IC50 Values / Kb: 20 min; for Kb: against DPDPE, test compound 100 nM, read-out: Ke
T1 construct: from tissue; host or cells: vas deferens of male ddy mice
Description: Using mouse vas deferens (MVD), the antagonist activity against DPDPE which is a δ-opioid agonist was checked.
In this experiment, ddy male mice were used. In a Magnus' tube which is filled with Krebes-Henseleit solution (NaCl […]; KCl 4.7 mM; CaCl2 2.5 mM; KH2 PO4 1.1 mM; NaHCO3 25 mM; glucose 11 mM) kept at 37° C., and into which an atmosphere consisting of 5% carbon dioxide and 95% oxygen was flown, vas deferens taken from the animals was suspended. Electric stimulation was applied through ring-shaped platinum electrodes mounted on the upper and lower portions of the tube at a frequency of 0.1 Hz and 5.0 mS duration. The contraction of the tissue was recorded on polygraph using isometric transducer.
Then 100 nM of the test compound was added. Twenty minutes later, DPDPE was begun to be added cumulatively. The ratio of IC50 values in the presence and absence of the test compound, Ke value (the molar concentration of the test compound necessary for translating the dose-effect curve to the curve of twice dose) and pA2 value were determined. The pA2 value was determined by the method of Shild et al (Shild, H. O., Br. J. Pharmac. Chamotehr., 4, 277 (1949)). That is, the logarithm of the test compound (log[test compound]) was plotted along the abscissa and the logarithm of the value obtained by subtracting 1 from the ratio of IC50 values was plotted in the presence and absence of the test compound [log(dose ratio-1)] along the ordinate. The pA2 value was determined from the value on the abscissa when the value on the ordinate of the obtained line is 0.

[2] = system: delayed type hypersensitivity; assay: Mouse Delayed Type Hypersensitivity Reaction Suppression Test-1 (SRBC); format: in vivo; details: SRBC sensitization; subcutaneous, everyday from 3 days before sensitization, totally 8 days; BALB/c
Description: BALB/c mice (male, 7 weeks old) were used. The mice were classified into groups depending on the body weight, each group consisting of 7-8 mice. Each of the mice was sensitized by subcutaneously administering […] of SRBC (8×10^8 in saline) on the heel of the left hing leg. On day 4 from the sensitization, 25 μl of SRBC (8×10^9 in saline) was subcutaneously administered on the right footpad so as to induce delayed type hypersensitivity. The difference in the thicknesses of the right footpad before the induction of reaction and 24 hours after the induction of the reaction was employed as an index of the degree of the reaction.
The test compound was dissolved in 10% DMSO-water and was subcutaneously administered everyday from 3 days before the sensitization to the day of induction of the reaction, totally 8 days. In the control group, 10% DMSO-water alone was administered in the same manner. The volume of administration was 5 ml/kg in both study groups and in the control group.
The % suppression of the delayed type hypersensitivity reaction was calculated according to the following equation: [formula]
wherein A means the difference in the thickness of the right hind leg before and after the reaction in control group, and B means the difference in the thickness of the right hind leg before and after the reaction in the group to which the test compound was administered.

[3] = system: Cerebral cortex nerve cells; assay: Brain cell-protecting action, MTT method; format: cell-based, rat; details: study group / control group, 570 nm, 10 μM, 3 days culture
Description: The brain cell-protecting action was examined by MTT [3-(4,5-dimethylthiazol-2-yl)-2,5-diphenyltetrazolium bromide] method. MTT yields a dark blue formazan compound by mitochondria in living cells. This compound was dissolved in isopropanol and absorbance at 570 nm was measured, thereby measuring the number of living cells.
Cerebral cortex nerve cells of fetal rats of 17 days old were placed in wells of a 96-well plate at a population density of 1×10^5 cells/cm^2. Then 10 μM of a test compound was added and the cells were cultured in 200 μl of mixed medium of D-MEM/F.12 (1:1) for 3 days (37° C., 5%CO2). In a control group, the medium alone was added Then […] of MTT solution in PBS (6mg/ml) was added and the mixture was allowed to react for 3 hours (37° C., 5% CO2). After removing the culture medium, 100 μl of isopropanol was added and the absorbance was measured.
The ratio of the absorbances of the study group and the control group was employed as an index of brain cell-protecting action.

[4] = system: brain cells; details: Kokai No. 3-218313; cited from earlier work
[5] = system: delayed type hypersensitivity; assay: Mouse Delayed Type Hypersensitivity Reaction Suppression Test-2 (donor spleen cells, subcutaneous administration); format: in vivo; details: C57BL/6 spleen cells; subcutaneous everyday from day of sensitization, totally 8 days; BALB/c
Source text: BALB/c mice (male, 7 weeks old) were used, and each group consisted of 4-5 mice. Spleen cells (1×10^7 ) obtained from a donor mouse (C57BL/6) was subcutaneously administered to sensitize the mice. On Day 7 from the sensitization, the spleen cells (5×10^6) of the donor were subcutaneously administered on the right hing leg and spleen cells (5×10^6) obtained from a mouse of the same line as the recipient mice were subcutaneously administered on the left footpad. Twenty four hours later, the thicknesses of the right and left footpads were measured with a dial thickness gage, and the difference in thicknesses of the right and left footpads before the induction of the reaction and 24 hours after the induction of the reaction was employed as the index of the degree of the reaction.
The test compound was dissolved in 10% DMSO-water and was subcutaneously administered everyday from the day of sensitization to the day of induction of the reaction, totally 8 days. In the control group, 10% DMSO-water alone was administered in the same manner. The volume of administration was 10 ml/kg in both study groups and in the control group. Delayed Type Hypersensitivity Reaction=(thickness of right foodpad after induction-thickness of right footpad before induction)-(thickness of […] before induction) [formula]
wherein C means delayed type hypersensitivity reaction of the group to which the test compound was administered and D means the delayed type hypersensitivity reaction of the group to which vehicle was administered.

T1 sequence (P32300 whole entry): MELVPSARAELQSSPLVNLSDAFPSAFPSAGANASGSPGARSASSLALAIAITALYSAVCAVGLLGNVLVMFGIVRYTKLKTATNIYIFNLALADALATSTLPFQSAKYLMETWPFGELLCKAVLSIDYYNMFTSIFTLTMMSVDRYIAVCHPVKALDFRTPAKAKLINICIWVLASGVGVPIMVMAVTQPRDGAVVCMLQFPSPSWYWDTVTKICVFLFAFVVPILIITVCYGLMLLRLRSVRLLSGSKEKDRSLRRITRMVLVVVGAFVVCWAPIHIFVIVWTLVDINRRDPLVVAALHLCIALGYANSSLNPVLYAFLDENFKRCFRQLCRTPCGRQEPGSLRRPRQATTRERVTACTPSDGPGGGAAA

O=[N+]([O-])c1cccc2[nH]c3c(c12)C[C@@]1(O)[C@H]2Cc4ccc(O)c5c4[C@@]1(CCN2CC1CC1)[C@H]3O5 [Compound 78, 17-cyclopropylmethyl-6,7-didehydro-4,5α-epoxy-3,14β-dihydroxy-4'-nitro-6,7-2',3'-indolomorphinan]
Ratio of IC50 Values [1]: 148
Kb [1]: 7.25 nM
% Suppression [2]: 36%

CSc1cccc2c3c([nH]c12)[C@@H]1Oc2c(O)ccc4c2[C@@]12CCN(CC1CC1)[C@H](C4)[C@]2(O)C3 [Compound 121, 17-cyclopropylmethyl-6,7-didehydro-4,5α-epoxy-3,14β-dihydroxy-7'-methylthio-6,7-2',3'-indolomorphinan]
Ratio of IC50 Values [1]: 33.6
Kb [1]: 3.07 nM
% Suppression [2]: 20%

O=[N+]([O-])c1cccc2c3c([nH]c12)[C@@H]1Oc2c(O)ccc4c2[C@@]12CCN(CC1CC1)[C@H](C4)[C@]2(O)C3 [Compound 136, 17-cyclopropylmethyl-6,7-didehydro-4,5α-epoxy-3,14β-dihydroxy-7'-nitro-6,7-2',3'-indolomorphinan]
Ratio of IC50 Values [1]: 192
Kb [1]: 0.52 nM
% Suppression [2]: 18%

N#Cc1ccc2c3c([nH]c2c1)[C@@H]1Oc2c(O)ccc4c2[C@@]12CCN(CC1CC1)[C@H](C4)[C@]2(O)C3 [Compound 53, 17-cyclopropylmethyl-6,7-didehydro-4,5α-epoxy-3,14β-dihydroxy-6'-cyano-6,7-2',3'-indolomorphinan]
Ratio of IC50 Values [1]: 62.3
Kb [1]: 1.63 nM
% Suppression [2]: 18%

Oc1ccc2c3c1O[C@H]1c4[nH]c5c(c4C[C@@]4(O)[C@@H](C2)N(CC2CC2)CC[C@]314)C[C@@]1(O)[C@H]2Cc3ccc(O)c4c3[C@@]1(CCN2CC1CC1)[C@H]5O4 [nor-BNI, reference compound]
Ratio of Absorbances [3]: 7.60
brain cell-protecting action (in words) [4]: has brain cell-protecting action

CSc1ccc2c3c([nH]c2c1)[C@@H]1Oc2c(O)ccc4c2[C@@]12CCN(CC1CC1)[C@H](C4)[C@]2(O)C3 [Compound 43, 17-cyclopropylmethyl-6,7-didehydro-4,5α-epoxy-3,14β-dihydroxy-6'-methylthio-6,7-2',3'-indolomorphinan]
Ratio of IC50 Values [1]: 168
Kb [1]: 0.6 nM
% Suppression [2]: 26%
% Suppression [5]: 27%

CCOC(=O)c1cccc2c3c([nH]c12)[C@@H]1Oc2c(O)ccc4c2[C@@]12CCN(CC1CC1)[C@H](C4)[C@]2(O)C3 [Compound 119, 17-cyclopropylmethyl-6,7-didehydro-4,5α-epoxy-3,14β-dihydroxy-7'-ethoxycarbonyl-6,7-2',3'indolomorphinan]
δ-antagonist activity relative to NTI (times that of NTI) [1]: 1.3-1.6 times
Ratio of IC50 Values [1]: 635
Kb [1]: 0.16 nM
% Suppression [2]: 12%
% Suppression [5]: 31%

C[S+]([O-])c1cccc2c3c([nH]c12)[C@@H]1Oc2c(O)ccc4c2[C@@]12CCN(CC1CC1)[C@H](C4)[C@]2(O)C3 (single isomer, unassigned) [Compound 592, 17-cyclopropylmethyl-6,7-didehydro-4,5α-epoxy-3,14β-dihydroxy-7'-methylsulfinyl-6,7-2',3'-indolomorphinan]
% Suppression [5]: 20%

Oc1ccc2c3c1O[C@H]1c4[nH]c5c(-c6ccccc6)cccc5c4C[C@@]4(O)[C@@H](C2)N(CC2CC2)CC[C@]314 [Compound 120, 17-cyclopropylmethyl-6,7-didehydro-4,5α-epoxy-3,14β-dihydroxy-7'-phenyl-6,7-2',3'-indolomorphinan]
Ratio of IC50 Values [1]: 17.0
Kb [1]: 6.25 nM
% Suppression [5]: 46%

CCCOC(=O)c1ccc2c3c([nH]c2c1)[C@@H]1Oc2c(O)ccc4c2[C@@]12CCN(CC1CC1)[C@H](C4)[C@]2(O)C3 [Compound 393, 17-cyclopropylmethyl-6,7-didehydro-4,5α-epoxy-3,14β-dihydroxy-6'-propoxycarbonyl-6,7-2',3'-indolomorphinan]
Ratio of IC50 Values [1]: 12.3
Kb [1]: 8.85 nM
% Suppression [5]: 33%
